Laboratory results from patent publication US20230416785A1, “NUCLEASE AND APPLICATION THEREOF” (CRISP-HR Therapeutics, Inc., priority 2020, published 2023).
Entries after “also recorded” stand apart in the source; their conditions may differ.

How the values were obtained:
[1] = system: A549 cells; experiment: Pifithrin-α treatment of A549 cells transfected with Cas9 or Cas9-HR, resazurin viability; assay type: cell-based, human
Protocol: (§1) 20 μL of 0.15 mg/mL Resazurin solution was added to cells either plated in 96 well plates for all cell lines, which were then incubated for ˜4 hours at 37° C. Cellular toxicity was quantified using a Tecan SpectraFlour Plus plate reader (Tecan) using a 535/595 filter set. Raw data was then normalized to the mean of the untransfected controls and plotted as described.

[2] = system: endogenous H2B; experiment: H2B-mNeon knock-in HDR quantification in K562 cells; assay type: cell-based, human; conditions: H2B-mNeon RT, genome specific plus RT specific primers
Protocol: After two days, cells were fixed in 4% PFA washed in PBS, then directly imaged, with cells showing nuclear localized fluorescence counted as successful HDR events.
K562 were grown in 24 well plates with RPMI-1640 supplemented with 5% FBS until roughly 70% confluent. At that time cells were either electroporated using the mNeon system (Invitrogen) using optimized settings for K562 cells, or lipofectamine 3000 again following manufactures instructions. Cells were then returned to 24 well plates with fresh media and grown for at least two days before being used in downstream analysis.
After 2 days, cells attached to coverslips coated with 0.01% poly-1-lysine, and were fixed in 4% PFA (Thermofisher) for 15 minutes at RT. After fixation, cells were washed 3× in PBS, mounted in 50% glycerol and imaged on a Nikon Eclipse E600 with standard FITC filters. For quantification, random patches of cells (usually between 8-15 cells per image) were identified via Brightfield, then fluoresce images were taken with constant illumination and exposure time (100%, and 110 ms respectively).

[3] = system: HBB amplicon; experiment: In-vitro exonuclease assay with purified proteins; assay type: biochemical, human; conditions: 30 nM protein, 3 nM HBB amplicon, 37° C., 60 minutes
Protocol: Reactions were then electrophoresed and visualized on an agarose gel. FIG. 5C illustrates quantification of exonuclease activity. Quantification of exonuclease activity assayed in FIG. 5B. 3 replicates were performed for each reaction and were quantified via FIJI (ImageJ) and then normalized to control amplicon levels.
Reactions were then electrophoresed and visualized on an agarose gel.
DNA was isolated from wildtype K562 cells, and amplified using standard Taq DNA polymerase and HBB-out-F (5′-[…]-3′ (SEQ ID NO: 125)) and HBB-out-R (5′-[…]-3′ (SEQ ID NO: 126)), Tm=56 for 35 cycles, and purified using the Qiagen PCR cleanup kit. […] The samples were then electrophoresed on a standard 1% TAE agarose gel stained with gel green.

[4] = system: A549 cells; experiment: Cellular toxicity / viability of transfected A549 cells (resazurin assay); assay type: cell-based
Protocol: A549 cells were chosen as they are both facile to grow and transfect, cost effective in terms of media and other reagents, and importantly have retained a functional p53 gene.
Cells were then allowed to recover for one additional day, after which viability was cells were incubated with resazurin (Millipore Sigma) for 4 hours, after which fluorescence was quantified by a plate reader (Perkin Elmer).
Unless otherwise noted, adherent cells (A549 or H1299) were seeded in 96 well plates and grown in either 50/50 F-12/DMEM or RPMI-1640 respectively, supplemented with 5% FBS and grown to roughly 70% confluency. Cells were then transfected with either Cal-Phos as described in Chen 2012 or Lipofectamine 3000 (Thermofisher). Fresh media was exchanged the next day and cellular viability was quantified on day 2.
as §1
20 μL of 0.15 mg/mL Resazurin solution was added to cells either plated in 96 well plates for all cell lines, which were then incubated for ˜4 hours at 37° C. Cellular toxicity was quantified using a Tecan SpectraFlour Plus plate reader (Tecan) using a 535/595 filter set. Raw data was then normalized to the mean of the untransfected controls and plotted as described. […] Stats: All two-sided students T-test with unequal variance.

Compound | cellular viability over a dilution series ([1]; 10 nM-10 μM Pifithrin-α, A549 cells transfected with Cas9) | effect on viability / Cas9 mediated toxicity compared to DMSO ([1]; 10 μM Pifithrin-α, A549 cells transfected with Cas9) | effect on viability / toxicity compared to DMSO ([1]; 10 μM Pifithrin-α, A549 cells transfected with Cas9-HR 8) | increase in cellular viability compared to DMSO ([1]; 10 μM Pifithrin-α, A549 cells transfected with Cas9, two days) [fold] | PCR of 5′ and 3′ knock-in junctions [2] | exonuclease activity (reduction of full length HBB amplicon) [3] | cellular toxicity ([4]; Int-G2 and Int-G3, CalPhos) | toxicity targeting G-2 rather than G-3 ([4]; Int-G2 vs Int-G3) | reduction in cellular toxicity compared to Cas9 or Cas9+hExo1 ([4]; targeting HBB-G3)
Cc1ccc(C(=O)Cn2c3c(sc2=N)CCCC3)cc1 [Pifithrin-α] | dose dependent response in cellular viability; also recorded: decreasing levels of toxicity with increasing concentrations; also recorded: Dose dependent increases in cellular viability | reduces Cas9 mediated cellular toxicity; also recorded: statistically significant (p<0.001) increase in viability; also recorded: increase in cellular viability | does not affect cellular toxicity; also recorded: no significant change in cellular viability; also recorded: no effect | ~2 |  |  |  |  | 
Cas9-HR 4: hExo1(1-352)-Cas9 fusion of FIG. 1A; E. coli codon optimized vector SEQ ID NO: 67 |  |  |  |  | Successful amplification | did not show Exonuclease activity; also recorded: no significant activity | dramatic reduction in cellular toxicity | significantly more toxicity | greatest reduction
